Laboratory results from paper PMC5869189 (Frontiers in Immunology, 2018).

System: PBMC from healthy, seropositive donors
Format: cell-based, human

Row | Sequence | % Responders | Median SFC/10^6 PBMCs (IFN-g)
1 | IRLRADTLMGAELAARPEYR [BPSS1525_P19] | 82.1% | 197
2 | ITNYFTGLQTVANNAADPSA [BPSL0280_P12] | 82.8% | 557
3 | IVEFAKLAKQFEERDAVLLG [BPSL2096_P7] | 85.3% | 304
4 | KGELIDQLGVRDKEAGVALR [BPSL2096_P12] | 97.1% | 317
5 | KLNHYSFGDVKGELIDQLGV [BPSL2096_P11] | 88.2% | 320
6 | KLTMLAHDAMMSAAAQDRSI [BPSS1531_P19] | 88.6% | 226
7 | KLVDLQLPGARLNALPNPPR [BPSS0530_P39] | 86.0% | 221
8 | KQTLAGSAMALRIVGDFPDL [BPSS0530_P43] | 100.0% | 299
9 | KVYTEGKGKRNPVTGNTCKQ [BPSL2522_P18] | 94.3% | 288
10 | LAGVQVVQSNGNYSVFLSGG [BPSL0280_P22] | 93.1% | 464
11 | LASRYRAVSTEVPDLAVGLD [BPSS0530_P13] | 97.7% | 267
12 | LEGAFYNGRRQPAPNWLGAF [BPSS1599_P9] | 85.4% | 126
13 | LERLHTDYAWGGWNVVIGEP [BPSS1599_P14] | 95.8% | 157
14 | LFDFDKAVLKPAGKQKLDEL [BPSL2522_P11] | 85.7% | 408
15 | LGAMVSRAIALEGAFYNGRR [BPSS1599_P8] | 89.6% | 99
16 | LLLRQAIAEYRMRLANLDAF [BPSS0530_P25] | 81.4% | 244
17 | LLVVEPGATLDTDGERATLD [BPSS1599_P31] | 83.3% | 151
18 | LQTSFEPLAMMLRQALARVI [BPSS0530_P31] | 97.7% | 240
19 | LRIVGDFPDLRFEAWGLRDGKVA [BPSS0530_P44] | 90.7% | 225
20 | LRVERIAYQNNQWTLEGVLY [BPSS1599_P42] | 91.7% | 139
21 | LSPRAALIAATAACVVLGGA [BPSS1599_P20] | 97.9% | 150
22 | MLRQALARVIETPVLPLRFE [BPSS0530_P32] | 95.3% | 316
23 | MSAAAQDRSIGAAQMTAAIA [BPSS1531_P20] | 91.4% | 225
24 | MSAQVIQIGRQRFVGGLFWQ [BPSS1599_P1] | 81.3% | 189
25 | MSSLPVGPVAWSDGMLIETQ [BPSS0530_P1] | 93.0% | 258

Row | Sequence | % Responders | Median SFC/10^6 PBMCs (IFN-g)
26 | NANLGGIAPPEFVRAIDVPG [BPSS1599_P40] | 89.6% | 137
27 | NASRTVSLDPRFIPPLLDTR [BPSS0530_P19] | 97.7% | 334
28 | NLAQQAAALPASPTWRAYRL [BPSS1599_P38] | 89.6% | 125
29 | NNHEENGQSAFETVTEASFP [BPSL2096_P3] | 91.2% | 308
30 | NQWTLEGVLYAK [BPSS1599_P43] | 81.3% | 120
31 | NRRVEIYLRAPQAAQ [BPSL0999_P21] | 93.6% | 348
32 | NSYTSQIAQLNEQIASASSQ [BPSL0280_P18] | 93.1% | 523
33 | NVPSSVTFATDQYAITPAFT [BPSL0999_P11] | 95.7% | 399
34 | PATANAKCDGALVAQAPAPA [BPSL2522_P7] | 82.9% | 265
35 | PEQGPRAPLANLAQQAAALP [BPSS1599_P37] | 93.8% | 147
36 | PLLNDLATTLNQNPQITASV [BPSL0999_P13] | 91.5% | 357
37 | PVAPVAPAITSQKITYQADT [BPSL2522_P9] | 88.6% | 353
38 | QGMGASNPIADNATEAGRAQ [BPSL0999_P19] | 97.9% | 375
39 | QIPYYAQSTYFEVESTDPFW [BPSS0530_P41] | 81.4% | 292
40 | QPAPNWLGAFALPDGRWAYF [BPSS1599_P10] | 95.8% | 189
41 | QPKRLDDLLPRRGGRPRTER [BPSS1599_P17] | 83.3% | 141
42 | QRFVGGLFWQSLSRRNELRA [BPSS1599_P2] | 81.3% | 137
43 | RDGFAPGHLSLGAMVSRAIA [BPSS1599_P7] | 95.8% | 132
44 | RDKEAGVALRATFIVDPDNT [BPSL2096_P13] | 94.1% | 315
45 | RDLAVSKLSQLAGVQVVQSN [BPSL0280_P21] | 93.1% | 493
46 | REPKKQDICYATQNRQDAVK [BPSL0919_P21] | 94.6% | 422
47 | RFIPPLLDTRAHLVLRSLID [BPSS0530_P20] | 90.7% | 248
48 | RLGLRHARGVFQDGTAFSLP [BPSS0530_P7] | 90.7% | 211
49 | RLNALPNPPRQIPYYAQSTY [BPSS0530_P40] | 81.4% | 219
50 | RMRLANLDAFDPLPPAMLYH [BPSS0530_P26] | 88.4% | 240
